# Results from ChEMBL document CHEMBL5385976, “Recognition of arylmethylidene derivatives of imidazothiazolotriazinones as novel tubulin polymerization inhibitors” (RSC Med Chem, 2024).
# Active and inactive are the calls of the source. No cut-off for these calls is given here.
# Tests used:
# HCC 2998 = experiment: Anticancer activity against human HCC 2998 cells assessed as cell growth at 10 umol/L incubated for 48 hrs by SRB assay relative to control; format: functional; conditions: HCC 2998, 48 h, dose 10 µmol/L, read-out: Activity
# 786-0 = experiment: Anticancer activity against human 786-0 cells assessed as cell growth at 10 umol/L incubated for 48 hrs by SRB assay relative to control; format: functional; conditions: 786-0, 48 h, dose 10 µmol/L, read-out: Activity
# HCT-15 = experiment: Anticancer activity against human HCT-15 cells assessed as cell growth at 10 umol/L incubated for 48 hrs by SRB assay relative to control; format: functional; conditions: HCT-15, 48 h, dose 10 µmol/L, read-out: Activity
# MDA-MB-231 = experiment: Anticancer activity against human MDA-MB-231 cells assessed as cell growth at 10 umol/L incubated for 48 hrs by SRB assay relative to control; format: functional; conditions: MDA-MB-231, 48 h, dose 10 µmol/L, read-out: Activity
# NCI-H23 = experiment: Anticancer activity against human NCI-H23 cells assessed as cell growth at 10 umol/L incubated for 48 hrs by SRB assay relative to control; format: functional; conditions: NCI-H23, 48 h, dose 10 µmol/L, read-out: Activity
# K562 [1] = experiment: Induction of cell cycle arrest in human K562 cells at G1 phase at 0.5 uM incubated for 3 days by RNase/PI staining based flow cytometry (reference value: 50 %); format: functional; conditions: time 3 day
# MOLT-4 = experiment: Anticancer activity against human MOLT-4 cells assessed as cell growth at 10 umol/L incubated for 48 hrs by SRB assay relative to control; format: functional; conditions: MOLT-4, 48 h, dose 10 µmol/L, read-out: Activity
# SK-MEL-2 = experiment: Anticancer activity against human SK-MEL-2 cells assessed as cell growth at 10 umol/L incubated for 48 hrs by SRB assay relative to control; format: functional; conditions: SK-MEL-2, 48 h, dose 10 µmol/L, read-out: Activity
# CCRF-CEM = experiment: Anticancer activity against human CCRF-CEM cells assessed as cell growth at 10 umol/L incubated for 48 hrs by SRB assay relative to control; format: functional; conditions: dose 10 µmol/L, read-out: Activity
# U-251 = experiment: Anticancer activity against human U-251 cells assessed as cell growth at 10 umol/L incubated for 48 hrs by SRB assay relative to control; format: functional; conditions: U-251, 48 h, dose 10 µmol/L, read-out: Activity
# A549 = experiment: Anticancer activity against human A549 cells assessed as cell growth at 10 umol/L incubated for 48 hrs by SRB assay relative to control; format: functional; conditions: A549, 48 h, dose 10 µmol/L, read-out: Activity
# OVCAR-5 = experiment: Anticancer activity against human OVCAR-5 cells assessed as cell growth at 10 umol/L incubated for 48 hrs by SRB assay relative to control; format: functional; conditions: OVCAR-5, 48 h, dose 10 µmol/L, read-out: Activity
# SK-OV-3 = experiment: Anticancer activity against human SK-OV-3 cells assessed as cell growth at 10 umol/L incubated for 48 hrs by SRB assay relative to control; format: functional; conditions: SK-OV-3, 48 h, dose 10 µmol/L, read-out: Activity
# K562 [2] = experiment: Anticancer activity against human K562 cells assessed as cell growth at 10 umol/L incubated for 48 hrs by SRB assay relative to control; format: functional; conditions: K562, 48 h, dose 10 µmol/L, read-out: Activity
# M14 = experiment: Anticancer activity against human M14 cells assessed as cell growth at 10 umol/L incubated for 48 hrs by SRB assay relative to control; format: functional; conditions: M14, 48 h, dose 10 µmol/L, read-out: Activity
# HCT-116 = experiment: Anticancer activity against human HCT-116 cells assessed as cell growth at 10 umol/L incubated for 48 hrs by SRB assay relative to control; format: functional; conditions: HCT-116, 48 h, dose 10 µmol/L, read-out: Activity
# ACHN = experiment: Anticancer activity against human ACHN cells assessed as cell growth at 10 umol/L incubated for 48 hrs by SRB assay relative to control; format: functional; conditions: dose 10 µmol/L, read-out: Activity
# MDA-MB-435 = experiment: Anticancer activity against human MDA-MB-435 cells assessed as cell growth at 10 umol/L incubated for 48 hrs by SRB assay relative to control; format: functional; conditions: MDA-MB-435, 48 h, dose 10 µmol/L, read-out: Activity
# HL-60(TB) = experiment: Anticancer activity against human HL-60(TB) cells assessed as cell growth at 10 umol/L incubated for 48 hrs by SRB assay relative to control; format: functional; conditions: HL-60, 48 h, dose 10 µmol/L, read-out: Activity
# SN12C = experiment: Anticancer activity against human SN12C cells assessed as cell growth at 10 umol/L incubated for 48 hrs by SRB assay relative to control; format: functional; conditions: dose 10 µmol/L, read-out: Activity
# Malme-3M = experiment: Anticancer activity against human Malme-3M cells assessed as cell growth at 10 umol/L incubated for 48 hrs by SRB assay relative to control; format: functional; conditions: dose 10 µmol/L, read-out: Activity
# HT-29 [3] = experiment: Downregulation of beta-actin level in human HT-29 cells upto 100 uM incubated for 48 hrs by Western blot analysis; format: functional, cell-based
# EKVX = experiment: Anticancer activity against human EKVX cells assessed as cell growth at 10 umol/L incubated for 48 hrs by SRB assay relative to control; format: functional; conditions: dose 10 µmol/L, read-out: Activity
# HOP-92 = experiment: Anticancer activity against human HOP-92 cells assessed as cell growth at 10 umol/L incubated for 48 hrs by SRB assay relative to control; format: functional; conditions: HOP-92, 48 h, dose 10 µmol/L, read-out: Activity
# HT-29 [4] = experiment: Anticancer activity against human HT-29 cells assessed as cell growth at 10 umol/L incubated for 48 hrs by SRB assay relative to control; format: functional; conditions: HT-29, 48 h, dose 10 µmol/L, read-out: Activity
# TK-10 = experiment: Anticancer activity against human TK-10 cells assessed as cell growth at 10 umol/L incubated for 48 hrs by SRB assay relative to control; format: functional; conditions: TK-10, 48 h, dose 10 µmol/L, read-out: Activity
# SF-539 = experiment: Anticancer activity against human SF-539 cells assessed as cell growth at 10 umol/L incubated for 48 hrs by SRB assay relative to control; format: functional; conditions: SF-539, 48 h, dose 10 µmol/L, read-out: Activity
# HOP-62 = experiment: Anticancer activity against human HOP-62 cells assessed as cell growth at 10 umol/L incubated for 48 hrs by SRB assay relative to control; format: functional; conditions: HOP-62, 48 h, dose 10 µmol/L, read-out: Activity
# K562 [5] = experiment: Induction of cell cycle arrest in human K562 cells at G2/M phase at 0.5 uM incubated for 3 days by RNase/PI staining based flow cytometry (reference value: 31 %); format: functional; conditions: time 3 day
# UACC-257 = experiment: Anticancer activity against human UACC-257 cells assessed as cell growth at 10 umol/L incubated for 48 hrs by SRB assay relative to control; format: functional; conditions: UACC-257, 48 h, dose 10 µmol/L, read-out: Activity
# KM12 = experiment: Anticancer activity against human KM12 cells assessed as cell growth at 10 umol/L incubated for 48 hrs by SRB assay relative to control; format: functional; conditions: KM12, 48 h, dose 10 µmol/L, read-out: Activity
# NCI-H226 = experiment: Antiproliferative activity against human NCI-H226 cells assessed as mean cell growth at 10 uM incubated for 48 hrs by SRB assay relative to control; format: functional
SMILES,growth at 10 µM (HCC 2998) [%],growth at 10 µM (786-0) [%],growth at 10 µM (HCT-15) [%],growth at 10 µM (MDA-MB-231) [%],growth at 10 µM (NCI-H23) [%],Activity (K562 [1]) [%],growth at 10 µM (MOLT-4) [%],growth at 10 µM (SK-MEL-2) [%],growth at 10 µM (CCRF-CEM) [%],growth at 10 µM (U-251) [%],growth at 10 µM (A549) [%],growth at 10 µM (OVCAR-5) [%],growth at 10 µM (SK-OV-3) [%],growth at 10 µM (K562 [2]) [%],growth at 10 µM (M14) [%],growth at 10 µM (HCT-116) [%],growth at 10 µM (ACHN) [%],growth at 10 µM (MDA-MB-435) [%],growth at 10 µM (HL-60(TB)) [%],growth at 10 µM (SN12C) [%],also measured
CCN1C(=O)N(CC)C2C1NN=c1s/c(=C\c3ccc(Cl)cc3Cl)c(=O)n12 (configuration not stated),7.2,20.6,9.5,12.4,28.4,13,12.9,-20.8,-52.1,11,14.6,28.2,29.2,83.7,13.8,9.7,26.7,-24.8,9.4,21.5,growth at 10 µM (Malme-3M): 50.4%; Activity (HT-29 [3]): Active; growth at 10 µM (EKVX): 50.1%; growth at 10 µM (HOP-92): 50.9%; growth at 10 µM (HT-29 [4]): 2.8%; growth at 10 µM (TK-10): 67.7%; growth at 10 µM (SF-539): 12.8%; growth at 10 µM (HOP-62): 33.5%; Activity (K562 [5]): 65%; growth at 10 µM (UACC-257): 68.6%; growth at 10 µM (KM12): 7.5%
COc1cc2c(c(OC)c1OC)-c1ccc(OC)c(=O)cc1[C@@H](NC(C)=O)CC2 [COLCHICINE],-59,15.4,-16.8,11.7,12.6,18,6.7,-32,-38.2,19,44.9,31.2,36.1,-25.7,1.7,0.2,30.5,-50.8,13,46.8,Activity (NCI-H226): 8%; growth at 10 µM (Malme-3M): 39%; growth at 10 µM (EKVX): 35.8%; growth at 10 µM (HOP-92): 2.4%; growth at 10 µM (HT-29 [4]): -29.9%; growth at 10 µM (TK-10): 52.7%; growth at 10 µM (SF-539): 7.9%; growth at 10 µM (HOP-62): 20%; Activity (K562 [5]): 56%; growth at 10 µM (UACC-257): 24.9%; growth at 10 µM (KM12): 3.7%
